Test results from patent US20230012560A1, “HEPATITIS B ANTIVIRAL AGENTS” (TAIGEN BIOTECHNOLOGY CO., LTD., priority 2019, published 2023).

system: HBV (HepAD38 cells); experiment: Real-Time PCR Assay (extracellular HBV DNA from HepAD38 culture supernatants); assay type: cell-based; conditions: Hepatitis B virus, 120 h, compound treatment for 5 days without tetracycline, extracellular DNA in culture supernatant quantified by real-time PCR, read-out: EC50 (50% effective concentration)

Compound | EC50
CCNC(=O)C(=O)N1CCC(NS(=O)(=O)c2cn(C)c(C(=O)Nc3ccc(F)c(Cl)c3F)c2F)CC1 [Compound 74] | < 0.1 µM
CNC(=O)C(=O)N1CC2CC2(NS(=O)(=O)c2cn(C)c(C(=O)Nc3cc(F)c(F)c(F)c3)c2F)C1 (stereo not shown) [Compound 55] | < 0.1 µM
CNC(=O)C(=O)N1CCC2CC2(NS(=O)(=O)c2cn(C)c(C(=O)Nc3cc(F)c(F)c(F)c3)c2F)C1 (stereo not shown) [Compound 59] | < 0.1 µM
CNS(=O)(=O)N1CC[C@@H](NS(=O)(=O)c2c(F)c(C(=O)Nc3ccc(F)c(F)c3)n3c2CCCC3)C1 [Compound 11] | 0.1 to 0.3 µM
COCCNC(=O)C(=O)N1CC[C@@H](NS(=O)(=O)c2cn(C)c(C(=O)Nc3ccc(F)c(F)c3)c2F)C1 [Compound 32] | < 0.1 µM
CCn1cc(S(=O)(=O)N[C@@H]2CCN(S(=O)(=O)NC)C2)c(F)c1C(=O)Nc1ccc(F)c(F)c1 [Compound 17] | < 0.1 µM
CCNC(=O)C(=O)N1CCC(NS(=O)(=O)c2c(C)c(C(=O)Nc3cc(F)c(F)c(F)c3)n3c2CCC3)CC1 [Compound 79] | 0.3 to 1 µM
